What was measured:
Test in all cases: KINOMEscan competition binding
Settings in all cases: compound 10.0 µM
MAPK14 (human) = MAPK14 (human) (UniProt Q16539)
CAMKK2 (human) = CAMKK2 (human) (UniProt Q96RR4)
NEK1 (human) = NEK1 (human) (UniProt Q96PY6)
MAP3K9 (human) = MAP3K9 (human) (UniProt P80192)
PTK6 (human) = PTK6 (human) (UniProt Q13882)
EPHA4 (human) = EPHA4 (human) (UniProt P54764)
LCK (human) = LCK (human) (UniProt P06239)
CSF1R (human) = CSF1R (human) (UniProt P07333)
RAF1 (human) = RAF1 (human) (UniProt P04049)
PLK4 (human) = PLK4 (human) (UniProt O00444)
FGFR1 (human) = FGFR1 (human) (UniProt P11362)
NEK6 (human) = NEK6 (human) (UniProt Q9HC98)
MAPK7 (human) = MAPK7 (human) (UniProt Q13164)
CLK2 (human) = CLK2 (human) (UniProt P49760)
CHEK1 (human) = CHEK1 (human) (UniProt O14757)
CAMK4 (human) = CAMK4 (human) (UniProt Q16566)
HIPK1 (human) = HIPK1 (human) (UniProt Q86Z02)
ERBB4 (human) = ERBB4 (human) (UniProt Q15303)
CAMK2D (human) = CAMK2D (human) (UniProt Q13557)
MYLK (human) = MYLK (human) (UniProt Q15746)
LIMK2 (human) = LIMK2 (human) (UniProt P53671)
MAP3K7 (human) = MAP3K7 (human) (UniProt O43318)
PRKACB (human) = PRKACB (human) (UniProt P22694)
TSSK1B (human) = TSSK1B (human) (UniProt Q9BXA7)
CSNK1D (human) = CSNK1D (human) (UniProt P48730)
TLK2 (human) = TLK2 (human) (UniProt Q86UE8)
MERTK (human) = MERTK (human) (UniProt Q12866)
MARK4 (human) = MARK4 (human) (UniProt Q96L34)
IRAK3 (human) = IRAK3 (human) (UniProt Q9Y616)
ADCK4 (human) = ADCK4 (human) (UniProt Q96D53)
CIT (human) = CIT (human) (UniProt O14578)
MINK1 (human) = MINK1 (human) (UniProt Q8N4C8)
HCK (human) = HCK (human) (UniProt P08631)
PAK2 (human) = PAK2 (human) (UniProt Q13177)
ALK (human) = ALK (human) (UniProt Q9UM73)
INSR (human) = INSR (human) (UniProt P06213)
FER (human) = FER (human) (UniProt P16591)
CDK16 (human) = CDK16 (human) (UniProt Q00536)
PDGFRA (human) = PDGFRA (human) (UniProt P16234)
STK11 (human) = STK11 (human) (UniProt Q15831)
[1] = tested on: FLT3 (human), P36888 [ITD]

Chain of MYLK (human) (Q15746 whole entry, looked up): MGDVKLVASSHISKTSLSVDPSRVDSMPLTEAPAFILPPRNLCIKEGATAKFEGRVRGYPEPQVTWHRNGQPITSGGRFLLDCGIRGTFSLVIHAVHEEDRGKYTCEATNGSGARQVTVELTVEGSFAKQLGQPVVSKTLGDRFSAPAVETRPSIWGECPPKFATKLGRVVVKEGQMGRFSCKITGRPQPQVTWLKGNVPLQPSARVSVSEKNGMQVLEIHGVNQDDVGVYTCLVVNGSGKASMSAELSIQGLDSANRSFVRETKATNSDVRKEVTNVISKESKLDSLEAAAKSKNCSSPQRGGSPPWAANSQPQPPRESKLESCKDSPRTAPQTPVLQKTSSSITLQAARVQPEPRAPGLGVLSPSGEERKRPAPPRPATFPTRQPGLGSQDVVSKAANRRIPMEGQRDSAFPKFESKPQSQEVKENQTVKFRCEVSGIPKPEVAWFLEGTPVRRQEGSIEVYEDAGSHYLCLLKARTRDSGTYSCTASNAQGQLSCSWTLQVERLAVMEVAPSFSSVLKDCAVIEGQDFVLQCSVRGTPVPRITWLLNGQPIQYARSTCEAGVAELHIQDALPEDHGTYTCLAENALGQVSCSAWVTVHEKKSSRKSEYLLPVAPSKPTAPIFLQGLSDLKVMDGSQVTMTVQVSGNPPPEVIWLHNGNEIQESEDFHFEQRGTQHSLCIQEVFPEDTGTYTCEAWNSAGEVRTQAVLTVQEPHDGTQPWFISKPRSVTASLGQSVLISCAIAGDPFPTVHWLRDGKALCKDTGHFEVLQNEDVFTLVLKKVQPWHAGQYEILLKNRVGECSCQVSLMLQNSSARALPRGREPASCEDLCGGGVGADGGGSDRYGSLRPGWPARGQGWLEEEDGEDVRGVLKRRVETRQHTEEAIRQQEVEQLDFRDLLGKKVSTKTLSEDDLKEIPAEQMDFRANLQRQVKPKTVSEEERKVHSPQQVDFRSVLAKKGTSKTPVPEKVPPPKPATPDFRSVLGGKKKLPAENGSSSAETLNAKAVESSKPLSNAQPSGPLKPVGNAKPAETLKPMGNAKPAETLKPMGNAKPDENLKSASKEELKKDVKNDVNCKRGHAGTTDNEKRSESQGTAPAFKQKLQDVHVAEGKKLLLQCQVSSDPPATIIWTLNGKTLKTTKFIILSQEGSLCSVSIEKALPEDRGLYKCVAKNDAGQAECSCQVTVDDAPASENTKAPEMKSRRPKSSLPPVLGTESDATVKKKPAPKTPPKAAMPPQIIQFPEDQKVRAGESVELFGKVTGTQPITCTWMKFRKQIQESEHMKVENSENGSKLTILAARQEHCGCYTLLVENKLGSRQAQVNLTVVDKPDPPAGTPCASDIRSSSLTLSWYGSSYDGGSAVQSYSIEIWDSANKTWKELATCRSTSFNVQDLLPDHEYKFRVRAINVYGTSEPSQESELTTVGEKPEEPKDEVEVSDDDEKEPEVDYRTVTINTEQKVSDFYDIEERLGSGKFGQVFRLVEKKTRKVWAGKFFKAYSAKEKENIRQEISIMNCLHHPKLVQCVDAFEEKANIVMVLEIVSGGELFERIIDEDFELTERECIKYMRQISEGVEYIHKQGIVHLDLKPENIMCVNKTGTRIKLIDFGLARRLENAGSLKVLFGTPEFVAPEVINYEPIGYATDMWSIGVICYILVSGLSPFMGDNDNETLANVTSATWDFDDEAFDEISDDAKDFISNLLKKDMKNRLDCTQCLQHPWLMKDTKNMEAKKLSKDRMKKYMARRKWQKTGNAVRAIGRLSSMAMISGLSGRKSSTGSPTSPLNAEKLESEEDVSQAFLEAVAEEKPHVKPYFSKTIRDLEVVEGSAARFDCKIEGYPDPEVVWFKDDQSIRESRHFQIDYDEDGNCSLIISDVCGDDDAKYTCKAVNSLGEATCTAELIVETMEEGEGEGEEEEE
Chain of CSNK1D (human) (P48730 whole entry, looked up): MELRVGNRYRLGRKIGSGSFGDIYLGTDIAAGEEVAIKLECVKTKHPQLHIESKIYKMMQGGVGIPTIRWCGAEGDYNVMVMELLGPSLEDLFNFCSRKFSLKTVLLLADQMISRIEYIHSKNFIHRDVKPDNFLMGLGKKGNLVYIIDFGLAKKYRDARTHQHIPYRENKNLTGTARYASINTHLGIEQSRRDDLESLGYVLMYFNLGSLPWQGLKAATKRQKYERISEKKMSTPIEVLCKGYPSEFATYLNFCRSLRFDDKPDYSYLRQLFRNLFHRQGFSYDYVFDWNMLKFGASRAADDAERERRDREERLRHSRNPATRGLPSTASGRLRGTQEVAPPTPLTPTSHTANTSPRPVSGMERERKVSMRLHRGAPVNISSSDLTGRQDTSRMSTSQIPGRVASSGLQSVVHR
Chain of IRAK3 (human) (Q9Y616 whole entry, looked up): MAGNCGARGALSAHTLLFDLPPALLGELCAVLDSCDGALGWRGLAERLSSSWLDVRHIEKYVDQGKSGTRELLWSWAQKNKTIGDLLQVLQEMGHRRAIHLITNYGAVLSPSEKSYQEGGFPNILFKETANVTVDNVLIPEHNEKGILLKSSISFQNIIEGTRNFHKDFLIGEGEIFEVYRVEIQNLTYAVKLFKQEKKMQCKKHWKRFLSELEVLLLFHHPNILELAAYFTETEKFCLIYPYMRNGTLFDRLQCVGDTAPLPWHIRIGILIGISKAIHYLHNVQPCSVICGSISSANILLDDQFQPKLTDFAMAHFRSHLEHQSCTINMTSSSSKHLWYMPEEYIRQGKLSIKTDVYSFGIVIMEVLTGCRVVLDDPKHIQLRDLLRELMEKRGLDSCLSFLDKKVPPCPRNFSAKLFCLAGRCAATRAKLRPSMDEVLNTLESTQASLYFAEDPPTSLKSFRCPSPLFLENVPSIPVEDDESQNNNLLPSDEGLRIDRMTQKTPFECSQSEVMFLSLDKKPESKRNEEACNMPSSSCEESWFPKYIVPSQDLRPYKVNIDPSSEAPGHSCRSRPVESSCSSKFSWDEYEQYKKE
Chain of ALK (human) (Q9UM73 whole entry, looked up): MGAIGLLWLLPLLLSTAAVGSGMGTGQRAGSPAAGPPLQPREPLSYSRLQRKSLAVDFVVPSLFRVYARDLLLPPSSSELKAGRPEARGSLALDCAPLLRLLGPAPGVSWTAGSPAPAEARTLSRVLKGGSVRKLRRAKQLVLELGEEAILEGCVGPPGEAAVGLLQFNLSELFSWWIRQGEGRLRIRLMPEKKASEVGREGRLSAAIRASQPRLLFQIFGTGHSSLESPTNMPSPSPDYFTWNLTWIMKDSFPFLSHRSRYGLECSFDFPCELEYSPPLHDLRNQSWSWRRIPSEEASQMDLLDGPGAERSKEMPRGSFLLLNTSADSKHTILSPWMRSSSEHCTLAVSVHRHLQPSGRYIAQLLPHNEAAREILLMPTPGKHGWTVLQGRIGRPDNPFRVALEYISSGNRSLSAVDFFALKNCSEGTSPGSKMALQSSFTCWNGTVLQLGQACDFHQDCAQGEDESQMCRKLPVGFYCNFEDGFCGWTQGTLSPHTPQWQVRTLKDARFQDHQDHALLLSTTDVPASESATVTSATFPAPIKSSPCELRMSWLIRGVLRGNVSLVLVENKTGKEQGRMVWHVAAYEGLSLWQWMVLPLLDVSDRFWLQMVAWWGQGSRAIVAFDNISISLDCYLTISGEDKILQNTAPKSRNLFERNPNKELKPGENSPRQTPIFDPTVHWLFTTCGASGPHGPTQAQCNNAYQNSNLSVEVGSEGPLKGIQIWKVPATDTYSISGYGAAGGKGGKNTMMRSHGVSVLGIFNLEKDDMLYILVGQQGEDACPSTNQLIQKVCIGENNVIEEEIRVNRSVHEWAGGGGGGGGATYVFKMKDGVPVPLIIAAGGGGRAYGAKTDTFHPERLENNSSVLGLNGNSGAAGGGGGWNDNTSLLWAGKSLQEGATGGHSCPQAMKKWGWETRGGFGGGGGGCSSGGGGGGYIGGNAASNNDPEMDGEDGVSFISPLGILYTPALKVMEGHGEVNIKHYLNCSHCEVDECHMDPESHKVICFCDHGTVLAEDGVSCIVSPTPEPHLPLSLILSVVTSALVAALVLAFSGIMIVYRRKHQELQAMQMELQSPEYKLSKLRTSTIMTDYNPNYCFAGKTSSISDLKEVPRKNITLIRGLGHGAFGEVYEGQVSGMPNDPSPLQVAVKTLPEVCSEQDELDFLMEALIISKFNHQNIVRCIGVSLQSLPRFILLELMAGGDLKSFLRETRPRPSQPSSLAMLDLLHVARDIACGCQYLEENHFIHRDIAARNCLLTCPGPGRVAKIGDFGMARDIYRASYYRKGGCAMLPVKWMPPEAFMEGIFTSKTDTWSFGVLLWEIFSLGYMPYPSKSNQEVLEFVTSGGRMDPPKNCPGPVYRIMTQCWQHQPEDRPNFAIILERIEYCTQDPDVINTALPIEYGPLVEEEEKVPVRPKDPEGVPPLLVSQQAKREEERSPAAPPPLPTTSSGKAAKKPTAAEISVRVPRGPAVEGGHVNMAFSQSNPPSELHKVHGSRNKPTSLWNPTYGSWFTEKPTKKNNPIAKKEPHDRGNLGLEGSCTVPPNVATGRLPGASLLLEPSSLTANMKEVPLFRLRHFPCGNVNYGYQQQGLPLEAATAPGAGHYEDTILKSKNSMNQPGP
Chain of CAMK2D (human) (Q13557 whole entry, looked up): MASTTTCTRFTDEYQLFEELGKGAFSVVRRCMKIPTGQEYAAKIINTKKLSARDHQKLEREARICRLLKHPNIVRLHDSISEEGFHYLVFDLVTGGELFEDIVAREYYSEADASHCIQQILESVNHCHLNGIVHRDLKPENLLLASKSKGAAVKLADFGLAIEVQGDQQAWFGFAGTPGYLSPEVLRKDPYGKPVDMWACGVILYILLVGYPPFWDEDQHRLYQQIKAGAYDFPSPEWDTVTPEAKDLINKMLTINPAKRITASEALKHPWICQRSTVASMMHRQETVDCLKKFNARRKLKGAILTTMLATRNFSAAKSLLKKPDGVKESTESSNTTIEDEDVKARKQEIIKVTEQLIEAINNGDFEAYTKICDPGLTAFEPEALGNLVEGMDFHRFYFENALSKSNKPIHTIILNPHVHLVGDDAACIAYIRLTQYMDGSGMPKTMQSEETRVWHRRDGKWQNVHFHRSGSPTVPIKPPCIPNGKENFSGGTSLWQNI

Row | Structure (SMILES) | kinase still bound, per cent of control (MAPK14 (human)) [%] | kinase still bound, per cent of control (CAMKK2 (human)) [%] | kinase still bound, per cent of control (NEK1 (human)) [%] | kinase still bound, per cent of control (MAP3K9 (human)) [%] | kinase still bound, per cent of control (PTK6 (human)) [%] | kinase still bound, per cent of control (EPHA4 (human)) [%] | kinase still bound, per cent of control (LCK (human)) [%] | kinase still bound, per cent of control (RAF1 (human)) [%] | kinase still bound, per cent of control (PLK4 (human)) [%] | kinase still bound, per cent of control (FGFR1 (human)) [%] | kinase still bound, per cent of control (NEK6 (human)) [%] | kinase still bound, per cent of control (MAPK7 (human)) [%] | kinase still bound, per cent of control (CLK2 (human)) [%] | kinase still bound, per cent of control (CHEK1 (human)) [%] | kinase still bound, per cent of control (CAMK4 (human)) [%] | kinase still bound, per cent of control (HIPK1 (human)) [%] | kinase still bound, per cent of control (ERBB4 (human)) [%] | kinase still bound, per cent of control (CAMK2D (human)) [%] | kinase still bound, per cent of control (MYLK (human)) [%] | kinase still bound, per cent of control (LIMK2 (human)) [%] | other results
1 | Cc1ccc2nc(NCCN)c3ncc(C)n3c2c1 | 98 | 93 | 78 | 100 | 99 | 100 | 98 | 100 | 90 | 100 | 100 | 0.7 | 54 | 91 | 100 | 21 | 100 | 100 | 79 | 100 | kinase still bound, per cent of control (CSF1R (human)): 16%; kinase still bound, per cent of control (MAP3K7 (human)): 100%; kinase still bound, per cent of control (PRKACB (human)): 100%; kinase still bound, per cent of control (TSSK1B (human)): 100%; kinase still bound, per cent of control (CSNK1D (human)): 45%; kinase still bound, per cent of control (TLK2 (human)): 88%; kinase still bound, per cent of control (MERTK (human)): 100%; kinase still bound, per cent of control (MARK4 (human)): 100%; kinase still bound, per cent of control (IRAK3 (human)): 72%; kinase still bound, per cent of control (ADCK4 (human)): 24%; kinase still bound, per cent of control (CIT (human)): 100%; kinase still bound, per cent of control (MINK1 (human)): 100%; kinase still bound, per cent of control (HCK (human)): 100%; kinase still bound, per cent of control (PAK2 (human)): 94%; kinase still bound, per cent of control (ALK (human)): 100%; kinase still bound, per cent of control (INSR (human)): 99%; kinase still bound, per cent of control (FER (human)): 98%
2 | Nc1ccc(-c2ccc3ncc4ccc(=O)n(-c5cccc(C(F)(F)F)c5)c4c3c2)cn1 | 100 | 99 | 87 | 100 | 100 | 100 | 100 | 100 | 100 | 95 | 92 | 100 | 15 | 86 | 100 | 79 | 100 | 85 | 95 | 89 | kinase still bound, per cent of control (CDK16 (human)): 98%; kinase still bound, per cent of control (PDGFRA (human)): 62%; kinase still bound, per cent of control (MAP3K7 (human)): 48%; kinase still bound, per cent of control (PRKACB (human)): 85%; kinase still bound, per cent of control (TSSK1B (human)): 100%; kinase still bound, per cent of control (CSNK1D (human)): 63%; kinase still bound, per cent of control (TLK2 (human)): 100%; kinase still bound, per cent of control (MERTK (human)): 87%; kinase still bound, per cent of control (MARK4 (human)): 100%; kinase still bound, per cent of control (IRAK3 (human)): 42%; kinase still bound, per cent of control (STK11 (human)): 98%; kinase still bound, per cent of control (ADCK4 (human)): 77%; kinase still bound, per cent of control (CIT (human)): 100%; kinase still bound, per cent of control (MINK1 (human)): 56%; kinase still bound, per cent of control [1]: 45%; kinase still bound, per cent of control (HCK (human)): 100%; kinase still bound, per cent of control (PAK2 (human)): 100%; kinase still bound, per cent of control (ALK (human)): 100%; kinase still bound, per cent of control (INSR (human)): 59%; kinase still bound, per cent of control (FER (human)): 95%
3 | CCOc1cc2ncc(C#N)c(Nc3ccc(OCc4ccccn4)c(Cl)c3)c2cc1NC(=O)/C=C/CN(C)C | 91 | 89 | 70 | 84 | 100 | 96 | 3.7 | 100 | 82 | 100 | 88 | 100 | 100 | 65 | 100 | 71 | 0 | 100 | 73 | 100 | kinase still bound, per cent of control (PDGFRA (human)): 100%; kinase still bound, per cent of control (CSF1R (human)): 68%; kinase still bound, per cent of control (MAP3K7 (human)): 90%; kinase still bound, per cent of control (PRKACB (human)): 100%; kinase still bound, per cent of control (TSSK1B (human)): 100%; kinase still bound, per cent of control (CSNK1D (human)): 60%; kinase still bound, per cent of control (MERTK (human)): 8.4%; kinase still bound, per cent of control (MARK4 (human)): 87%; kinase still bound, per cent of control (IRAK3 (human)): 85%; kinase still bound, per cent of control (STK11 (human)): 94%; kinase still bound, per cent of control (ADCK4 (human)): 98%; kinase still bound, per cent of control (CIT (human)): 95%; kinase still bound, per cent of control (MINK1 (human)): 6.8%; kinase still bound, per cent of control [1]: 86%; kinase still bound, per cent of control (HCK (human)): 35%; kinase still bound, per cent of control (PAK2 (human)): 34%; kinase still bound, per cent of control (ALK (human)): 100%; kinase still bound, per cent of control (INSR (human)): 46%; kinase still bound, per cent of control (FER (human)): 37%

Reference: the kinase profiling compilation of Christmann-Franck et al. (2016)
